Test results as given in patent US8404266B2, “Method for stabilization of S-nitrosoglutathione and composition prepared by the same” (Pharmagenix AG, priority 2008, dated 2013).

Test: GSNO decomposition at different pH values, monitored spectrophotometrically at 540 nm (FIG. 3)
Format: physicochemical
From the text: The GSNO is a brown colored compound having a characteristic absorption spectrum. One of its two characteristic peaks is in the UV range, while the maximum of the other is around 540 nm. During decomposition the absorption spectrum of GSNO goes through a change. The change in the height of the peak at 540 nm is linearly proportional with the concentration of GSNO. Wavelengths at far IR range can be used as background absorption, since no change occurs in them during the decomposition process of GSNO. These features allow monitoring the concentration of GSNO spectrophotometrically. […] On the X-axis the time (given in days) and on the Y-axis absorbency values are given. Symbols Indicate the Following pH Values: • *: pH=0.3; • ♦: pH=4.26; • □: pH=7.4; • ▪: pH=8.6; • ◯: pH=12.6. The decomposition of GSNO was monitored spectrophotometrically, since the absorption spectrum of GSNO undergoes changes and the size change of the peak at 540 nm is linearly proportional with the concentration of GSNO. Wavelengths at far IR range were used as background absorption, since no change occurs in them during the decomposition of GSNO.

GSNO metabolism (decomposition) (more alkaline conditions, curve of pH 12): gets accelerated | stability (pH about 8.6, compared with conventionally applied pH 4.26): very good stability | pH range of plateau-like maximum of stability (pH range): 7.5 to 10 | metabolic rate of GSNO (under alkaline conditions): significantly be decreased
Compound: N[C@@H](CCC(=O)N[C@@H](CSN=O)C(=O)NCC(=O)O)C(=O)O [GSNO, S-nitrosoglutathione]
